# In ChEMBL document CHEMBL3045541, “Synthesis and systemic fungicidal activity of silicon-containing azole derivatives” (2000):
# Tested on: Rhizoctonia solani
# Experiment: Fungicidal activity against Rhizoctonia solani infected Oryza sativa var. Nipponbare assessed per 10 […] applied by submerged-treatment 7 days prior to infection measured after 5 days
# Type: functional
compound,measurement,value
C[Si](C)(C)CC(O)(Cn1nccn1)c1ccc(F)cc1 (stereo unspecified),MED,>100 g
C[Si](C)(C)CC(O)(Cn1cncn1)c1ccccc1 (stereo unspecified),MED,50 g
C=CC(C(O)(Cn1cncn1)c1ccc(F)cc1)[Si](C)(C)C (stereo unspecified),MED,100 g
C[Si](C)(C)CC(O)(Cn1cncn1)c1ccccc1F (stereo unspecified),MED,100 g
CC(n1cncn1)C(O)(C[Si](C)(C)C)c1ccc(F)cc1 (stereo unspecified),MED,50 g
C[Si](C)(C)CC(O)(Cn1cncn1)c1ccc(C(F)(F)F)cc1 (stereo unspecified),MED,100 g
C[Si](C)(C)CCC(O)(Cn1cncn1)c1ccc(F)cc1 (stereo unspecified),MED,>100 g
C[Si](C)(C)CC(O)(Cn1cncn1)c1ccc(F)cc1 (stereo unspecified) [SIMECONAZOLE],MED,12.5 g
Cc1ccc(C(O)(Cn2cncn2)C[Si](C)(C)C)cc1 (stereo unspecified),MED,>100 g
C[Si](C)(C)CC(O)(Cn1cncn1)c1ccc(Cl)cc1Cl (stereo unspecified),MED,100 g
CCCCC(O)(Cn1cncn1)c1ccc(Cl)cc1Cl (stereo unspecified) [HEXACONAZOLE],MED,50 g
COc1ccc(C(O)(Cn2cncn2)C[Si](C)(C)C)cc1 (stereo unspecified),MED,>100 g
C[Si](C)(C)CC(O)(Cn1cnnc1)c1ccc(F)cc1 (stereo unspecified),MED,>100 g
CC(C)Oc1cccc(NC(=O)c2ccccc2C(F)(F)F)c1 [FLUTOLANIL],MED,>100 g
C[Si](C)(C)CC(O)(Cn1cncn1)c1ccc(F)cc1F (stereo unspecified),MED,100 g
C[Si](C)(C)CC(O)(Cn1cncn1)c1cccc(F)c1 (stereo unspecified),MED,50 g
C[Si](C)(C)CC(O)(Cn1ccnn1)c1ccc(F)cc1 (stereo unspecified),MED,>100 g
C[Si](C)(C)CC(O)(Cn1cncn1)c1ccc(Cl)cc1 (stereo unspecified),MED,25 g
C[Si](C)(C)CC(O)(Cn1cncn1)c1ccc(Cl)cc1F (stereo unspecified),MED,50 g
CCC(C(O)(Cn1cncn1)c1ccc(F)cc1)[Si](C)(C)C (stereo unspecified),MED,50 g
C[Si](C)(C)CC(O)(Cn1cncn1)c1ccc(Br)cc1 (stereo unspecified),MED,>100 g
C=CC(C(O)(Cn1cncn1)c1ccc(Cl)cc1)[Si](C)(C)C (stereo unspecified),MED,>100 g
C[Si](C)(C)CC(O)(Cn1ccnc1)c1ccc(F)cc1 (stereo unspecified),MED,>100 g
C[Si](C)(C)C#CC(O)(Cn1cncn1)c1ccc(Cl)cc1Cl (stereo unspecified),MED,>100 g
CC(C)(n1cncn1)C(O)(C[Si](C)(C)C)c1ccc(F)cc1 (stereo unspecified),MED,>100 g
CCC(n1cncn1)C(O)(C[Si](C)(C)C)c1ccc(F)cc1 (stereo unspecified),MED,>100 g
